Experimental data from patent US7300929B2, “Mediators of hedgehog signaling pathways, compositions and uses related thereto” (Curis, Inc., priority 1999, dated 2007).

Tests used:
[1] = system: Patched pathway in ptc-null cells; assay: Ptc-null assay (gli-1 mRNA by RT-PCR and real-time PCR); type: cell-based, mouse; conditions: 3 days, 5 μM
Experimental: […] Total ribonucleic acid (RNA) was isolated from the cells and used for reverse transcriptase-polymerase chain reaction (RT-PCR). […] The gli-1 and actin mRNA samples were then loaded on 1.5% agarose gel and were detected by staining with ethidium bromide. The same samples were analyzed by the quantitative real-time polymerase chain reaction method to quantify the levels of gli-1 mRNA.

[2] = system: Patched pathway / ultraviolet radiation-induced BCC tumors; assay: Adult BCC mouse skin punch assay; type: cell-based; conditions: positive control, 6 days, vs vehicle
Experimental: Ptc heterozygous transgenic mice were irradiated 3 times weekly for 6 months, during which time many small, and often microscopic, BCC tumors developed. Four-mm diameter skin punch explants, presumably containing BCC structures, were cultured for 6 days in the presence of vehicle, the positive control (jervine), or 5 μM D. At the end of the experiment, the explants were analyzed by X-gal staining to detect the level of Patched pathway activity, by histology to determine the effect of treatment on the morphology of ultraviolet radiation-induced BCCs, and by quantifying the level of gli-1 mRNA expression to characterize the extent of pathway inhibition.

CC1=C2C(=O)[C@H]3[C@@H](CC=C4C[C@@H](O)CC[C@@]43C)[C@@H]2CC[C@]12O[C@@H]1C[C@H](C)CN[C@H]1[C@H]2C [jervine]
gli-1 mRNA levels (quantitative real-time PCR) [1]: downregulated | expression of gli-1 mRNA (RT-PCR, agarose gel) ([1]; vs vehicle): significantly decreased | number and size of BCC structures (X-gal staining) [2]: greatly decreased
